Assay: in vivo
Conditions: for concentration at 0.033 h: Day 1, hour 0.033, LLQ 1 ng/mL
Method: Using a standard, by weight, randomization procedure, 21 male animals (weighing 3.25 to 3.73 kg at randomization), from a total of 36 male experimentally naïve New Zealand White Hra:(NZW)SPF albino rabbits (approximately 6 to 7 months of age), were assigned to the study as presented in Table 5.
To induce an anaphylactic syndrome, animals in Groups 1 to 4 were administered horse serum (0.2μ sterile filtered) via subcutaneous (“SC”) injection at dose volume of 2 mL/animal, followed two days later by an intravenous (“IV”) injection at a dose volume of 2 mL/animal.
Forty-one to 44 days following the beginning of the induction period, the animals were sedated by administration of 2 to 3 mg/kg via IM injection of acepromazine, 0.02 mg/kg via IM injection of buprenorphine and sevoflurane via inhalation.
Following induction of anesthesia, all animals were placed in dorsal recumbency position and an incision was made to locate the right or left femoral artery. An arterial sheath was introduced and advanced into the isolated artery and used to monitor blood pressure. Additionally, an off midline cervical neck incision was made to locate and isolate the left or right external jugular vein for collection of blood and for emergency drug administration, as needed.
Following induction of anesthesia and catheter placement, single or repeated challenge doses of 0.5 to 2 mL of filtered horse serum were administered intravenously to each animal in Groups 1 to 4.
Prior to tablet administration, the mouth of the animal was wet with 0.5 mL of tap water and the mouth was held shut for 15 to 30 seconds to help dissolve the tablet. For IM administration, the injections were made in the right rear flank of each animal.
Each 50 μL aliquot of standard, QC sample, and study sample was mixed with 200 μL of working internal standard solution (25 ng/mL in acetonitrile/methanol (50/50, v/v)). The sample was centrifuged, and a 200 μL aliquot of the resulting supernatant was transferred to a clean 96-well plate. The sample was evaporated and reconstituted with […] of water/formic acid (100/0.1, v/v). An aliquot was injected onto an LC-MS/MS system for analysis.
The liquid chromatography system used an ACE 5 C18 column, 50×2.1 mm (5 μm particle size) with an isocratic flow consisting of water/formic acid (100/0.1, v/v) and methanol/formic acid (100/0.05, v/v) at a flow rate of 400 μL/minute. The analyte and internal standard were detected using an SCIEX API 5000 triple quadrupole LC-MS/MS system equipped with an ESI (TurboIonSpray®) ionization source operated in the positive ion mode.
The lower limit of quantitation was 1 ng/ml and a linear 1/x2 weighting regression analysis was used.
Concentrations less than the lower limit of quantitation (LLOQ, <1.00 ng/mL) were reported as and set to zero. For each animal, the following pharmacokinetic parameters were determined: maximum observed plasma concentration (Cmax), time of maximum observed plasma concentration (Tmax), and area under the plasma concentration-time curve (AUC).
The formulation ratio was calculated using the following formula: Formulation Ratio=Mean AUC0-60 min Buccal Citrate÷Mean AUC0-60 min Buccal No citrate. The Induced Anaphylaxis to Non-induced anaphylaxis ratio was calculated using the following formula: Induced Anaphylaxis:Non-Induced Anaphylaxis=Mean AUC0-60 min Induced Anaphylaxis IM÷Mean AUC0-60 min Non-induced Anaphylaxis IM. Relative bioavailability (expressed as a percent) was calculated using the following formula: Relative Bioavailability=[AUC0-60 min/DoseBuccal (citrate and/or no citrate)]÷[AUC0-60 min/DoseIntramuscular (induced and/or non-induced)]*100.

Concentration (ng/mL), plasma epinephrine (Group 7, dose 0.3 mg, subject 701, male, Day 1, hour 0.333, LLQ 2 ng/mL): BLQ | concentration at 0 h (male, New Zealand White Hra:(NZW)SPF, rabbit, plasma, intramuscular, 0.3 mg, Concentration (ng/mL), plasma epinephrine, Group 7, dose 0.3 mg, subject 701, male, Day 1, hour 0, LLQ 2 ng/mL): 2.48 ng/mL | concentration at 0.033 h (male, New Zealand White Hra:(NZW)SPF, rabbit, plasma, intramuscular, 0.3 mg, Concentration (ng/mL), plasma epinephrine, Group 7, dose 0.3 mg, subject 701, male): 2.75 ng/mL | concentration at 0.083 h (male, New Zealand White Hra:(NZW)SPF, rabbit, plasma, intramuscular, 0.3 mg, Concentration (ng/mL), plasma epinephrine, Group 7, dose 0.3 mg, subject 701, male, Day 1, hour 0.083, LLQ 2 ng/mL): 4.32 ng/mL | concentration at 0.125 h (male, New Zealand White Hra:(NZW)SPF, rabbit, plasma, intramuscular, 0.3 mg, Concentration (ng/mL), plasma epinephrine, Group 7, dose 0.3 mg, subject 701, male, Day 1, hour 0.125, LLQ 2 ng/mL): 5.73 ng/mL | concentration at 0.167 h (male, New Zealand White Hra:(NZW)SPF, rabbit, plasma, intramuscular, 0.3 mg, Concentration (ng/mL), plasma epinephrine, Group 7, dose 0.3 mg, subject 701, male, Day 1, hour 0.167, LLQ 2 ng/mL): 4.76 ng/mL | concentration at 0.25 h (male, New Zealand White Hra:(NZW)SPF, rabbit, plasma, intramuscular, 0.3 mg, Concentration (ng/mL), plasma epinephrine, Group 7, dose 0.3 mg, subject 701, male, Day 1, hour 0.25, LLQ 2 ng/mL): 2.44 ng/mL | concentration at 0.5 h (male, New Zealand White Hra:(NZW)SPF, rabbit, plasma, intramuscular, 0.3 mg, Concentration (ng/mL), plasma epinephrine, Group 7, dose 0.3 mg, subject 701, male, Day 1, hour 0.5, LLQ 2 ng/mL): 2.06 ng/mL | concentration at 0.75 h (male, New Zealand White Hra:(NZW)SPF, rabbit, plasma, intramuscular, 0.3 mg, Concentration (ng/mL), plasma epinephrine, Group 7, dose 0.3 mg, subject 701, male, Day 1, hour 0.75, LLQ 2 ng/mL): 2.84 ng/mL | concentration at 1 h (male, New Zealand White Hra:(NZW)SPF, rabbit, plasma, intramuscular, 0.3 mg, Concentration (ng/mL), plasma epinephrine, Group 7, dose 0.3 mg, subject 701, male, Day 1, hour 1, LLQ 2 ng/mL): 3.1 ng/mL | concentration at 0 h (male, New Zealand White Hra:(NZW)SPF, rabbit, plasma, intramuscular, 0.3 mg, Concentration (ng/mL), plasma epinephrine, Group 7, dose 0.3 mg, subject 703, male, Day 1, hour 0, LLQ 1 ng/mL): 1.92 ng/mL | concentration at 0.033 h (male, New Zealand White Hra:(NZW)SPF, rabbit, plasma, intramuscular, 0.3 mg, Concentration (ng/mL), plasma epinephrine, Group 7, dose 0.3 mg, subject 703, male): 8.06 ng/mL | concentration at 0.083 h (male, New Zealand White Hra:(NZW)SPF, rabbit, plasma, intramuscular, 0.3 mg, Concentration (ng/mL), plasma epinephrine, Group 7, dose 0.3 mg, subject 703, male, Day 1, hour 0.083, LLQ 1 ng/mL): 6.6 ng/mL | concentration at 0.125 h (male, New Zealand White Hra:(NZW)SPF, rabbit, plasma, intramuscular, 0.3 mg, Concentration (ng/mL), plasma epinephrine, Group 7, dose 0.3 mg, subject 703, male, Day 1, hour 0.125, LLQ 1 ng/mL): 3.53 ng/mL | concentration at 0.167 h (male, New Zealand White Hra:(NZW)SPF, rabbit, plasma, intramuscular, 0.3 mg, Concentration (ng/mL), plasma epinephrine, Group 7, dose 0.3 mg, subject 703, male, Day 1, hour 0.167, LLQ 1 ng/mL): 2.32 ng/mL | concentration at 0.25 h (male, New Zealand White Hra:(NZW)SPF, rabbit, plasma, intramuscular, 0.3 mg, Concentration (ng/mL), plasma epinephrine, Group 7, dose 0.3 mg, subject 703, male, Day 1, hour 0.25, LLQ 1 ng/mL): 3.5 ng/mL | concentration at 0.333 h (male, New Zealand White Hra:(NZW)SPF, rabbit, plasma, intramuscular, 0.3 mg, Concentration (ng/mL), plasma epinephrine, Group 7, dose 0.3 mg, subject 703, male, Day 1, hour 0.333, LLQ 1 ng/mL): 3.78 ng/mL | concentration at 0.5 h (male, New Zealand White Hra:(NZW)SPF, rabbit, plasma, intramuscular, 0.3 mg, Concentration (ng/mL), plasma epinephrine, Group 7, dose 0.3 mg, subject 703, male, Day 1, hour 0.5, LLQ 1 ng/mL): 2.86 ng/mL | concentration at 0.75 h (male, New Zealand White Hra:(NZW)SPF, rabbit, plasma, intramuscular, 0.3 mg, Concentration (ng/mL), plasma epinephrine, Group 7, dose 0.3 mg, subject 703, male, Day 1, hour 0.75, LLQ 1 ng/mL): 5.36 ng/mL | concentration at 1 h (male, New Zealand White Hra:(NZW)SPF, rabbit, plasma, intramuscular, 0.3 mg, Concentration (ng/mL), plasma epinephrine, Group 7, dose 0.3 mg, subject 703, male, Day 1, hour 1, LLQ 1 ng/mL): 5.17 ng/mL | concentration at 0 h (male, New Zealand White Hra:(NZW)SPF, rabbit, plasma, intramuscular, 0.3 mg, Concentration (ng/mL), plasma epinephrine, Subject Group 3, dose 0.3 mg, male rabbits, Day 1, Hour 0): 2.29 ng/mL | concentration at 1 h (male, New Zealand White Hra:(NZW)SPF, rabbit, plasma, other: sublingual/buccal tablet, 35 mg, Concentration (ng/mL), plasma epinephrine, Group 2, dose 35 mg, subject 306, male, Day 1, hour 1, LLQ 2 ng/mL): 10.6 ng/mL
Compound: CNC[C@H](O)c1ccc(O)c(O)c1 [Epinephrine]

From US12042472B2 (pHase Pharmaceuticals LLC, priority 2017, dated 2024)
